Measurements taken from patent publication US20070110714A1 (priority 2003, published 2007).

B1: IL-4: recombinant human IL-4 (PeproTech) (protein, UniProt P05112 25-153, looked up)
Interleukin-4: HKCDITLQEIIKTLNSLTEQKTLCTELTVTDIFAASKNTTEKETFCRAATVLRQFYSHHEKDTRCLGATAQQFHRHKQLIRFLKRLDRNLWGLAGLNSCPVKEANQSTLENFLERLKTIMREKYSKCSS

Key:
pseudo type VSV-E1E2 [1] = type: cell-based
MDC = type: cell-based, human
VSV? G-G = type: cell-based
[2] = test system: Monocyte-derived DCs from HCV-infected patients (HCV-DC); experiment: MICA/B expression in stimulated DC by flow cytometry (HCV-DC); type: cell-based, human; settings: HCV-DC stimulated 24 hours with cytokine at day 6
[3] = test system: Monocyte-derived DCs from healthy donors (N-DC); experiment: MICA/B expression in stimulated DC by flow cytometry (N-DC); type: cell-based, human; settings: N-DC stimulated 24 hours with cytokine at day 6
NK cells [4] = experiment: NK cell activation by co-culture with stimulated N-DC (K562 cytolytic assay, intracellular IFN? expression); type: cell-based, human
Experimental: (§1) NK cells were isolated from PBM of a healthy donor, and labeled with a concentrated antibody cocktail for NK cell, then, labeled with magnetic colloid (StemCell Technologies (Vancouver, BC, Canada)). 90% or more of the cells were CD56+CD3-lymphocytes. The concentrated NK cells were cultured with RPMI 1640 medium supplemented with 10% FCS and 10 U/mL penicillin/streptomycin, in a 24-well culture dish (5.0×10^5/well). DCs from a healthy individual (N-DC) or a HCV-infected individual (HCV-DC) were stimulated with IFNa (1000 U/mL) or IL-15 (50 ng/mL) for 24 hours, added to a well at a concentration of 1.0×10^5/mL, and co-cultured together with NK cells for 24 hours.
(§2) The cytolysis assay was carried out as described below. Target cells (K562) labeled with ^51Cr were incubated for 4 hours at various effecter/target ratios, in NK/DC co-culturing (with or without trans well system) or NK cell single culturing. After incubation, the supernatant was recovered, and ? counting was conducted. Maximum release or natural release was defined as counting from a sample incubated with 5% Triton-X or a sample incubated with only the medium, respectively. The cytolysis activity was calculated according to the following formula: Lysis %=(experimental value of release−natural release)×100/(maximum release−natural release)
(§3) Intracellular IFN? expression of an NK cell was assayed as described below. NK cells cultured for 24 hours together with DC as described above were incubated together with 10 ng/ml PMA and 1 μmol/L ionomycin (Sigma Aldrich). Next, after incubation at 37° C. for 4 hours in the presence of 1 μl/mL GolgiPlug (registered trademark)(BD-Phanmngen), NK cells were stained at 4° C. for 30 minutes with a PE-labeled CD56 monoclonal antibody. The cells were treated with Cytofix/Cytoperm (registered trademark) buffering solution (BD-Pharmingen) at room temperature for 15 minutes, then, stained with a FITC-labeled-anti-IFN? monoclonal antibody (mouse IgG1). The stained cells were analyzed by flow cytometry. […]

HCV-DC = experiment: Cytokine production of stimulated HCV-DC, ELISA of culture supernatant; type: cell-based, human; settings: HCV-DC cultured 24 hours with 50 ng/ml IL-15
Experimental: (§4) N-DC and HCV-DC were stimulated with IFNa (1000 U/mL) for 24 hours(n=5 for each group). IL-15, IL-12p70, TNFa and IL-1β in each culture supernatant were measured by solid phase sandwich ELISA using a couple of specific monoclonal antibodies and a recombinant cytokine standard substance (IFNa/β, IL-12p70, TNFa and IL-1β, Endogen, Wobum, Mass.; IL-15, BD-Pharmingen). The limit thresholds of detection of these ELISA systems are as described below: IL-15, 3.7 pg/mL; IFNa/β, 17.5 pg/mL; IL-12p70, TNFa and IL-1β, 8.8 pg/mL.
(§5) N-DC and HCV-DC were cultured for 24 hours together with 50 ng/ml IL-15 in the presence or absence of an anti-IFNa/βR neutralization antibody (30 μg/mL)(n=5 for each group). IFNa and IFNβ in each culture supernatant were measured by ELISA.

NK cells [5] = experiment: NK cells cultured with IL-15 alone (K562 cytolytic activity and IFN? production); type: cell-based, human; settings: newly isolated NK cells cultured 24 hours with 50 ng/mL IL-15, no DC
Experimental: as §2, §3

NK cells [6] = experiment: NK cell activation by co-culture with stimulated HCV-DC; type: cell-based, human; settings: NK cells co-cultured with cytokine-stimulated HCV-DC
Experimental: as §1
as §2, with “Maximum release or natural release was defined as counting from a sample incubated with 5% Triton-X or a sample incubated with only the medium, respectively.” left out
Intracellular IFN? expression of an NK cell was assayed as described below. […] The stained cells were analyzed by flow cytometry. […]

N-DC = experiment: Cytokine production of stimulated N-DC, ELISA of culture supernatant; type: cell-based, human; settings: N-DC cultured 24 hours with 50 ng/ml IL-15
Experimental: as §4, §5

pseudo type VSV-E1E2 [7] = type: cell-based; remark: listed apart in the source
HCV = type: cell-based
[8] = NK cells co-cultured 24 hours with cytokine-stimulated N-DC

Row | Molecule | percentage of VSV-E1E2-containing GFP+ cells (pseudo type VSV-E1E2 [1]) | sensitivity against VSV? G-G (percentage of GFP+ cells) (VSV? G-G) | MICA/B expression [2] | MICA/B expression [3] | other results
1 | O=C(O)CN(CCN(CC(=O)O)CC(=O)O)CC(=O)O [EDTA] |  |  |  |  | percentage of GFP+ cell having VSV-E1E2 (pseudo type VSV-E1E2 [1]): did not decrease
2 | O=C[C@H](O)[C@@H](O)[C@@H](O)[C@H](O)CO [galactose] |  |  |  |  | percentage of GFP+ cell having VSV-E1E2 (pseudo type VSV-E1E2 [1]): did not exert an influence
3 | CpG ODN 2006 | decreases significantly | not influenced |  |  | expression of CD83 and CD86 (MDC): up-regulated
4 | GM-CSF: recombinant human GM-CSF (PeproTech) |  |  |  |  | proportion of GFP+ cells (median) (pseudo type VSV-E1E2 [1]): 1.5%
5 | IL-12: cytokine (R&D Systems) |  |  | did not induce MICA/B expression | did not induce MICA/B expression | 
6 | IL-15: cytokine (R&D Systems); claimed active ingredient, T cell growth factor stimulating dendritic cells |  |  | could apparently induce MICA/B | could apparently induce MICA/B | IFN? production of NK cells (NK cells [4]; [8]): increase; cytolytic activity for K562 cells (NK cells [4]; [8]): increase; K562 cytolytic activity (NK cells [4]; trans well: NK cells and IL-15 (50 ng/mL)-stimulated N-DC separated by 0.4 μm membrane, 24 hours): did not show increase in cylolytic ability; production of IFNa and IFNβ (HCV-DC): produced; activation of NK cells (K562 cytolytic activity and IFN? production) (NK cells [5]): could not activate NK cells; activation of NK cells (NK cells [6]): activated NK cells; production of IFNa and IFNβ (N-DC): produced
7 | IL-18: cytokine (R&D Systems) |  |  | did not induce MICA/B expression | did not induce MICA/B expression | 
8 | TNFa | decreased | decreased | did not induce MICA/B expression | did not induce MICA/B expression | 
9 | mannan |  |  |  |  | infection of VSV-E1E2 in HepG2 cells (pseudo type VSV-E1E2 [7]): did not inhibit; percentage of GFP+ cell having VSV-E1E2 (pseudo type VSV-E1E2 [1]): decreased in dose-dependent manner; disturbing effect on infection of MDC with true HCV (HCV): confirmed
10 | polyI:C | decreased | decreased |  |  | 
11 | B1 | decreases significantly | not influenced |  |  | 
